Reference: patent publication US20260078103A1, “ISOQUINOLONES AS PI3K INHIBITORS” (OnKure, Inc., priority 2022, published 2026)
Like-named read-outs stand apart in the source and are kept apart here.

Experiments:
Type in all cases: cell-based
[1] = tested on: phosphorylation of AKT (pAKT) in SKBR3 cells express WT PI3Ka; assay: In vitro cell pAKT (Ser473) HTRF, SKBR3 cells; conditions: cellular pAKT
Procedure: (§1) In Vitro Cell pAKT: Determination of IC50 Values for Inhibition of Phosphorylation of AKT (pAKT) in T47D Cells Expressing Mutant PI3Ka (H1047R) Mutation and SKBR3 Cells Express WT PI3Ka.
(§2) T47D or SKBR3 cells were trypsinized, resuspended in culture media and seeded onto assay ready plates. T47D culture media consisted of RPMI, 10% FBS and Insulin (0.2 units/mL). SKBR3 culture media consisted of McCoy's 5a and 10% FBS. Cells were seeded at a density of 5000 cells/well and dispensed in 12.5 μL onto 384 well assay ready plates (Perkin Elmer, 6008238)). Assay ready plates had previously been stamped with 10-point dilutions of compounds of interest, as well as controls. The Echo655 is used to stamp plates at 12.5 nL of compound or DMSO. Cells were grown for 6 hours at 37° Celsius and 5% CO2. After 6 hours, 4 μL of Lysis buffer reagent was added to the plate, which was then centrifuged for 1 minute at 1000 rpm. Then the plate was incubated at room temperature for 30 minutes. After 30 minutes, 4 μL of antibody mix containing Eu Cryptate, d2 Cryptate, and detection buffer, was added to the plate. The plate was centrifuged for 1 minute at 1000 rpm and then incubated overnight at room temperature. The plate was read on an Envision plate reader using the HTRF protocol. The percentage of inhibition of AKT phosphorylation was calculated using the following formula: % Inhibition=100×(pAKTHC−pAKTSample)/(pAKTHC−pAKTLC)), where pAKTHC is obtained from cells treated with 0.1% DMSO only; PAKTLC is obtained from cells treated with 10 uM Alpelisib. The IC50 (concentration achieving 50% inhibition of pAKT) is calculated by fitting the Curve using XIfit (v5.3.1.3), equation 201: Y=Bottom+(Top−Bottom)/(1+10^((LogIC50−X)*HillSlope)).

[2] = tested on: SKBR3 cells express WT PI3Ka; assay: In vitro cell proliferation, SKBR3 cells (CellTiter-Glo); conditions: inhibition of proliferation
Procedure: (§3) In Vitro Cell Proliferation: Determination of EC50 Values for Inhibition of Proliferation in T47D Cells Expressing Mutant PI3Ka (H1047R) Mutation and SKBR3 Cells Express WT PI3Ka.
(§4) T47D or SKBR3 cells were trypsinized, resuspended in culture media and seeded onto assay ready plates. T47D culture media consisted of RPMI, 10% FBS and Insulin (0.2 units/mL). SKBR3 culture media consisted of McCoys 5a and 10% FBS. Cells were seeded at a density of 1,500 cells/well and dispensed in 50 μl onto 384 well assay ready plates (Corning, 89089-790). Assay ready plates had previously been stamped with 10-point dilutions of compounds of interest, as well as controls. The Echo655 is used to stamp plates at 40 nL of compound or DMSO. Cells were grown for 72 hours at 37° Celsius and 5% CO2. After 72 hours, cells were equilibrated at room temperature for 15 minutes. 30 μL of CellTiter-Glo reagent is added to the plate, which is then shaken for 30 minutes at temperature at 300-500 rpm. Cells are then read on an Envision plate reader. The percentage of inhibition of proliferation was calculated using the following formula: % Inhibition=100×(LumD−Lumsample)/(LumD−Lumlnh), where D is obtained from cells treated with 0.1% DMSO only; lnh is obtained from cells treated with 10 uM Alpelisib. The effective concentration achieving 50% inhibition of proliferation (EC50) is calculated by fitting the Curve using Xlfit (v5.3.1.3), equation 201: Y=Bottom+(Top−Bottom)/(1+10^((LogEC50−X)*HillSlope)).

[3] = tested on: T47D cells expressing mutant PI3Ka (H1047R); assay: In vitro cell proliferation, T47D cells (CellTiter-Glo); conditions: inhibition of proliferation, read-out: Avg T-47D EC50
Procedure: as §3, §4

[4] = tested on: phosphorylation of AKT (pAKT) in T47D cells expressing mutant PI3Ka (H1047R); assay: In vitro cell pAKT (Ser473) HTRF, T47D cells; conditions: cellular pAKT, T47D cells, mutant PI3Ka (H1047R), 6 hours, read-out: Avg T-47D IC50
Procedure: as §1, §2

Row | SMILES | IC50 ([1]; 6 hours) [nM] | EC50 ([2]; 72 hours) [nM] | EC50 ([3]; 72 hours) [nM] | IC50 [4] [nM] | IC50 ([1]; Homo sapiens, SK-BR-3, 6 h) [nM] | EC50 ([2]; Homo sapiens, SK-BR-3, 72 h) [nM] | EC50 ([3]; Homo sapiens, T47D, 72 h) [nM] | IC50 ([4]; Homo sapiens, T47D, 6 h) [nM]
1 | CCOc1ncc(-c2cc3c([C@@H](C)Nc4ccccc4C(=O)O)cc(C)cc3c(=O)n2C)cc1F [Example 238] |  |  |  |  | > 15000 | > 15000 | 1 to 500 | 1 to 500
2 | CCOc1ncc(-c2cc3c([C@@H](C)Nc4ccccc4C(=O)O)cc(C)cc3c(=O)n2C)s1 [Example 284] |  |  |  |  | 2000 to 15000 | > 15000 | 1 to 500 | 1 to 500
3 | Cc1cc(C(C)Nc2ccccc2C(=O)O)c2cc(N3Cc4cccc(C(F)(F)F)c4C3)n(C)c(=O)c2c1 (single isomer, unassigned) [Example 92] |  |  | 500 to 2000 | 1 to 500 | > 15000 | > 15000 |  | 
4 | Cc1cc([C@@H](C)Nc2ccccc2C(=O)O)c2cc(N3CCN(c4cnn(C)n4)CC3)n(C)c(=O)c2c1 [Example 231] |  |  |  |  | 2000 to 15000 | 2000 to 15000 | 1 to 500 | 1 to 500
5 | Cc1cc(C(C)Nc2ccccc2C(=O)O)c2cc(N3C[C@H]4CN(CC(F)(F)F)C[C@H]4C3)n(C)c(=O)c2c1 (single isomer, unassigned) [Example 30] |  |  | 2000 to 15000 | > 15000 | > 15000 | 2000 to 15000 |  | 
6 | Cc1cc(C(C)Nc2ccccc2C(=O)O)c2cc(N3CCC4(CCN(CC(F)(F)F)C4)CC3)n(C)c(=O)c2c1 (centres unmarked) [Example 94] |  |  |  |  | 2000 to 15000 | 2000 to 15000 | 1 to 500 | 1 to 500
7 | Cc1cc(C(C)Nc2ccccc2C(=O)O)c2cc(N3C[C@@H]4CCCC[C@H]4C3)n(C)c(=O)c2c1 (single isomer, unassigned) [Example 114] | > 15000 | > 15000 | > 15000 | > 15000 |  |  |  | 
8 | Cc1cc(C(C)Nc2ccccc2C(=O)O)c2cc(C#Cc3cccc(C#N)c3)n(C)c(=O)c2c1 (centres unmarked) [Example 159] | > 15000 | > 15000 | 2000 to 15000 | 500 to 2000 |  |  |  | 
9 | C[C@@H](Nc1ccccc1C(=O)O)c1cc(F)cc2c(=O)n(C)c(N3CC4CCC(C3)N4CC(F)(F)F)cc12 [Example 511] |  |  |  |  | > 15000 | 2000 to 15000 | 1 to 500 | 1 to 500
10 | Cc1cc(C(C)Nc2ccccc2C(=O)O)c2cc(N3CCN4CC(F)(F)CC4C3)n(C)c(=O)c2c1 (single isomer, unassigned) [Example 122] | > 15000 | > 15000 | 2000 to 15000 | > 15000 |  |  |  | 
11 | Cc1cc(C(C)Nc2ccccc2C(=O)O)c2cc(C3=CCC(C)(C)CC3)n(C)c(=O)c2c1 (single isomer, unassigned) [Example 5, 2-((1-(3-(4,4-dimethylcyclohex-1-en-1-yl)-2,7-dimethyl-1-oxo-1,2-dihydroisoquinolin-5-yl)ethyl)amino)benzoic acid] | > 15000 | > 15000 | 2000 to 15000 | 2000 to 15000 |  |  |  | 
12 | Cc1cc(C(C)Nc2ccccc2C(=O)O)c2cc(N3CCC4(CCOCC4)CC3)n(C)c(=O)c2c1 (single isomer, unassigned) [Example 166] | > 15000 | > 15000 | 2000 to 15000 | 2000 to 15000 |  |  |  | 
13 | COc1ncc(-c2cc3c([C@@H](C)Nc4ccccc4C(=O)O)cc(C)cc3c(=O)n2C)cc1F [Example 246] |  |  |  |  | > 15000 | > 15000 | 2000 to 15000 | 2000 to 15000
14 | Cc1cc([C@@H](C)Nc2cccc(F)c2C(=O)O)c2cc(C3CC3)n(C)c(=O)c2c1 [Example 320] |  |  |  |  | > 15000 | > 15000 | 1 to 500 | 1 to 500
15 | COC(C)(C)c1ncc(-c2cc3c([C@@H](C)Nc4ccccc4C(=O)O)cc(C)cc3c(=O)n2C)cc1F [Example 277] | 2000 to 15000 | 2000 to 15000 | 1 to 500 | 1 to 500 |  |  |  | 
16 | Cc1cc(C(C)Nc2ccccc2C(=O)O)c2cc(N3CC4(CCN(CC(F)(F)F)CC4)C3)n(C)c(=O)c2c1 (centres unmarked) [Example 172] | > 15000 | > 15000 | 1 to 500 | 1 to 500 |  |  |  | 
17 | COc1ncccc1N1CCN(c2cc3c([C@@H](C)Nc4ccccc4C(=O)O)cc(C)cc3c(=O)n2C)CC1 [Example 256] | 2000 to 15000 | 2000 to 15000 | 1 to 500 | 1 to 500 |  |  |  | 

The next lines start with the values.

Row | IC50 ([1]; 6 hours) [nM] | EC50 ([2]; 72 hours) [nM] | EC50 ([3]; 72 hours) [nM] | IC50 [4] [nM] | IC50 ([1]; Homo sapiens, SK-BR-3, 6 h) [nM] | EC50 ([2]; Homo sapiens, SK-BR-3, 72 h) [nM] | EC50 ([3]; Homo sapiens, T47D, 72 h) [nM] | IC50 ([4]; Homo sapiens, T47D, 6 h) [nM] | SMILES
18 | > 15000 | > 15000 | 1 to 500 | 1 to 500 |  |  |  |  | Cc1cc([C@@H](C)Nc2ccccc2C(=O)O)c2cc(-c3cnc(OC4CC4)cn3)n(C)c(=O)c2c1 [Example 394]
19 |  |  |  |  | > 15000 | > 15000 | 1 to 500 | 1 to 500 | C[C@@H](Nc1ccccc1C(=O)O)c1cc(F)cc2c(=O)n(C)c(-c3cnc(C4CC4)s3)cc12 [Example 344]
20 | > 15000 | 2000 to 15000 | 500 to 2000 | 1 to 500 |  |  |  |  | Cc1ccc(N[C@H](C)c2cc(F)cc3c(=O)n(C)c(-c4ccc(OCC(F)(F)F)nc4)cc23)c(C(=O)O)n1 [Example 557]
21 |  |  |  |  | 2000 to 15000 | > 15000 | 1 to 500 | 1 to 500 | Cc1ncc(F)cc1-c1ncc(-c2c(F)c3c([C@@H](C)Nc4ccccc4C(=O)O)cc(F)cc3c(=O)n2C)cc1F [Example 562]
22 |  |  |  |  | > 15000 | > 15000 | 500 to 2000 | 500 to 2000 | C[C@@H](Nc1cccc(F)c1C(=O)O)c1cc(F)cc2c(=O)n(C)c(N3CC[C@H](C(F)(F)F)C3)cc12 [Example 416]
23 |  |  |  |  | 2000 to 15000 | 2000 to 15000 | 1 to 500 | 1 to 500 | Cc1cnc(N2CCN(c3cc4c([C@@H](C)Nc5ccccc5C(=O)O)cc(F)cc4c(=O)n3C)CC2)c(C)n1 [Example 492]
24 |  |  | 500 to 2000 |  | > 15000 | > 15000 |  | 1 to 500 | C[C@@H](Nc1cccc(F)c1C(=O)O)c1cc(F)cc2c(=O)n(C)c(C3C[C@@H]3C3CC3)cc12 (single isomer, unassigned) [Example 425]
25 |  |  |  |  | > 15000 | > 15000 | 1 to 500 | 1 to 500 | C[C@@H](Nc1ccccc1C(=O)O)c1cc(F)cc2c(=O)n(C)c(-c3cnc(-c4nccs4)c(F)c3)cc12 [Example 518]
26 |  |  |  |  | > 15000 | > 15000 | 1 to 500 | 1 to 500 | Cc1cc([C@@H](C)Nc2cccc(F)c2C(=O)O)c2cc(N3CCN(C)[C@@H](C(F)(F)F)C3)n(C)c(=O)c2c1 [Example 410]
27 |  |  |  |  | > 15000 | > 15000 | 1 to 500 | 1 to 500 | Cc1cc([C@@H](C)Nc2ccccc2C(=O)O)c2cc(OCc3ccnc(C)c3)n(C)c(=O)c2c1 [Example 342]
28 |  |  |  |  | 500 to 2000 | 2000 to 15000 | 1 to 500 | 1 to 500 | Cc1ccc(N2CCN(c3cc4c([C@@H](C)Nc5ccccc5C(=O)O)cc(F)cc4c(=O)n3C)CC2(C)C)cn1 [Example 502]
29 | > 15000 | > 15000 | 500 to 2000 | 1 to 500 |  |  |  |  | C[C@@H](Nc1cccc(F)c1C(=O)O)c1cc(F)cc2c(=O)n(C)c(C3CC3(F)F)cc12 (single isomer, unassigned) [Example 480]
